In patent US6355677B1, “Adrenoleukodystrophy treatments and drug screening” (The Johns Hopkins University, priority 1998, dated 2002):
Values joined by “and” are separate entries in the source; they are usually repeats but may differ in a detail not shown here. Equal entries are not always repeated. “Also recorded” adds a separate entry of the source.

Columns and labels:
PPARα = assay: Semi-quantitative RT-PCR, mouse primary fibroblasts; format: cell-based; details: mouse X-ALD fibroblasts, 5 mM, 2 days
Method: (§1) Total RNA from tissue culture cells (10^6-10^7 cells/sample) was isolated using TRizol Reagent™ (Life Technologies), treated with DNase I (100-200 units in 40 mM HC, 10mM NaC, 6 mM MgCl2, pH 7.3), incubated at 37° C. for 30 min, extracted with pheno/chloroform, and precipitated with isopropanol. cDNA was generated using MMLV reverse transcriptase (RT) (Life Technologies). PCR was done in the linear range of amplification (determined for each primerpair-cDNA combination). For each cDNA sample, a ‘cocktail’ was prepared, containing PCR buffer (Promega), 200 µM of each DNTP, 1.5 mM MgCl2, 250 ng cDNA, 0.25 U of Taq polymerase (Promega) and […]. The ‘cocktail’ was divided into separate tubes containing cDNA specific primers.
(§2) The PCR primers used are listed below. In the parentheses, h indicates human and m, mouse; this is followed by the gene name, product size and annealing temperature. For primer sequences, F is forward and R is reverse. […]

Pex11α = assay: as above; format: cell-based; details: normal or X-ALD mouse fibroblasts, 10 day exposure to 5 mM; data not shown
Method: as §1, §2

ΔF508-CFTR = details: nasal epithelia cells, homozygous or heterozygous ΔF508-CFTR; cited from earlier work
[1] = used for many years in patients; cited from earlier work
X-ALD mice = assay: In vivo efficacy: VLCFA levels in brain and adrenal glands after dietary treatment; parameters: species or system mouse
Method: To measure the in vivo efficacy of 4-PBA, we supplemented mouse chow and water with 4-PBA.
In vivo delivery of 4-PBA to X-ALD mice. 4-PBA was delivered to X-ALD mice in their regular chow and water. 4-PBA chow was prepared by B'OServ (Holton Industries, Frenchtown, N.J.). […] Brains and adrenal glands from normal LD and X-ALD/4-PBA mice were collected for VLCFA analysis as described.

[2] = tested on: mouse primary fibroblasts; assay: Toxicity in cultured cells; format: cell-based; details: data not shown
Description: (§3) The genotypes of the X-ALD patients included midssense, nonsense, ftame shift and deletion mutations and all of the main clinical phenotypes.

[3] = tested on: human primary fibroblasts; assay: Toxicity in cultured cells; format: cell-based; details: data not shown
Description: as §3

ALDR mRNA = assay: Semi-quantitative RT-PCR, mouse primary fibroblasts; format: cell-based; details: normal and X-ALD fibroblasts, 5 mM, 2 days, relative to GAPDH
Method: (§4) Semi-quantitative RT-PCR was done on the mRNA isolated from these cells (FIG. 1). […] In addition, the expression of acyl-CoA oxidase (AOX), the rate-limiting enzyme in VLCFA β-oxidation, was not affected. Although previous studies have reported that ALDR mRNA was not detectable in fibroblasts by either northern or RT-PCR analyses, those RT-PCR studies used about 66 ng of CDNA; we used about 250 ng of cDNA.
as §1
(§5) The PCR primers used are listed below. In the parentheses, h indicates human and m, mouse; this is followed by the gene name, product size and annealing temperature. For primer sequences, F is forward and R is reverse. (hALD, 249, 64° C.) F: 5′-[…]-3′, R: 5′-[…]-3′; (mALD, 526, 59° C.) F: 5′-[…]-3′, R: 5′-[…]-3′; (hPMP70, 405, 60° C.) F: 5′-[…]-3′, R: 5′-[…]-3′; (mPMP70, 405, 60° C.) F: 5′-TTr[…]-3′, R: 5′-[…]-3′; (hALDR, 312, 56° C.) F: 5-[…]-3′, R: 5′-[…]-3′; (mALDR, 711, 57° C.) F: 5′-[…]-3′, R: 5′-[…]-3′; (hPMP69, 319, 60° C.) F: 5′-[…]-3′, R: 5-[…]-3′; (hAOX, 405, 60° C.) F: 5′-[…]-3′, R: 5′[…]-3′; (mAOX, 247, 60° C.) F: 5′-[…]r[…]-3′, R: 5′-[…]-3′; (hPPARα, 347, 60° C.) F: 5-[…]r[…]rCC-3′, R: 5′-[…]-3′; (mFPPARa, 268, 60° C.) F: 5′-GATTr[…]-TGAGG-3, R: 5′-[…]-3′; (hPex11α 658, 55° C.) F: 5-[…]-3′, R: 5′-[…]-3′; (mpex11α, 720, 55° C.) F: 5′-[…]r[…]-3′, R: 5′-[…]-3′; (β-Actin, 460, 62° C.) F:5′-[…]-3′, R: 5′-[…]-3, (glyceraldehyde 3-phosphate dehydrogenase (GAPDH), 528, 62° C.) F: 5′-[…]-3, R: 5′-[…]-3′. β-Actin and GAPDH primers were used for both human and mouse analyses.

ALDP = assay: as above; format: cell-based; details: normal fibroblasts, 5 mM, 2 days
Method: as §4, §1, §5

acyl-CoA oxidase (AOX) = assay: as above; format: cell-based; details: 5 mM, 2 days
Method: as §4, §1, §5

PMP70 = assay: as above; format: cell-based; details: X-ALD or normal fibroblasts, 5 mM, 2 days
Method: as §4, §1, §5

[4] = tested on: human primary fibroblasts; assay: Phytanic acid oxidation ([2,3-3H]-phytanic acid); format: cell-based; details: 5 mM, 10 days
Method: Phytanic acid oxidation occurs exclusively in the peroxisomal matrix and can therefore serve as a marker for peroxisomal function. […] SCP2 is a 15-kDa protein located exclusively in the peroxisomal matrix.
(§6) For VLCFA measurements, total lipids were extracted, converted to methyl esters, purified by TLC and subjected to capillary GC analysis as described. Duplicate assays were set up independently and were assayed on different days. C24:0 β-oxidation activity of human and mouse fibroblasts and human lymphoblastoid cells was determined by measuring their capacity to degrade [1-^14C]-C24:0 fatty acid (American Radiolabeled Chemicals, St. Louis, Mo.) to water-soluble products as described. Phytanic acid oxidation was measured as described. Cells were incubated with [2,3-^3H]-phytanic acid for 24 hours, and the release of ^3H-H2O to the aqueous medium was determined (activity in pmol/hr per mg protein).

[5] = tested on: X-ALD human lymphoblastoid cells; assay: C24:0 β-oxidation ([1-14C]-C24:0 degradation); format: cell-based; details: 5 mM 4PBA for 6 days
Method: Cell lines derived from X-ALD patients and X-ALD mice were grown in MEM (fibroblasts) or RPMI (lymphoblastoid cells) supplemented with fetal calf serum (10%), penicillin (100 U/ml), streptomycin (100 U/ml) and glutamine (2 mM). […] Cells in the second flask were grown without drug for the same length of time and served as controls. The media were changed every 3-4 days.
as §6

[6] = dietary 4-PBA (about 70 mg per day), 6 weeks

## O=C(O)CCCc1ccccc1 [4-PBA, 4-Phenyl butyrate]
PPARα
  PPARα expression: increased
Pex11α
  Pex11α transcripts: undetectable
ΔF508-CFTR
  Effect on ΔF508-CFTR: rescue of ΔF508-CFTR from premature degradation
[1]
  Side effects: few, if any, side effects
X-ALD mice; [6]
  Correction of brain C24:0: complete correction; also recorded: complete normalization
  Correction of brain C26:0: 78% and 80%
X-ALD mice; dietary 4-PBA, 4 weeks
  Adrenal gland VLCFA (C24:0 and C26:0) levels: substantial reduction
  Brain VLCFA (C24:0 and C26:0) levels: substantial reduction
[2]
  Toxic concentration: exceeding 7.5 mM
[3]
  Toxic concentration: exceeding 7.5 mM
ALDR mRNA
  ALDR mRNA level: substantially increased; also recorded: substantial increase
ALDP
  ALDP expression level: little, if any, effect
acyl-CoA oxidase (AOX)
  AOX expression: unchanged; also recorded: not affected
PMP70
  PMP70 expression level: little, if any, effect
[4]; X-ALD human primary fibroblasts
  Increase in phytanic acid oxidation: twofold
[4]; normal human primary fibroblasts
  Increase in phytanic acid oxidation: twofold
[5]
  C24:0 β-oxidation, Increase (treated over untreated): twofold to threefold
  C24:0 β-oxidation, Treated (mean specific activity): 0.18 ± 0.03 nmol/hr per mg protein
